Bridge positions count the residues as written; N and C are the ends. Square brackets hold non-standard residues; d marks the D form. Side chains are listed from the residue outwards. Peptide text beside a SMILES is read from it. * marks the point of attachment. NOTA = O=C(O)CN1CCN(CC(=O)O)CCN(CC(=O)*)CC1; 2Nal = N[C@@H](Cc1ccc2ccccc2c1)C(=O)O; Lys(iPr) = CC(C)NCCCC[C@H](N)C(=O)O
Biological target: human CXCR4 (Homo sapiens, UniProt P61073)
Test: CXCL12-AF647 competition binding on Jurkat cells, flow cytometry
Conditions: competition with CXCL12-AF647, mean ± SD
Protocol: Subsequently, 50 µL containing 0.25 × 10^6 Jurkat cells was added to each well, followed by 50 µL human CXCL12-AF647 (100 ng/mL; Almac, Craigavon, UK). Plates were incubated for 30 min at room temperature in the dark. After incubation, the cells were washed twice by centrifugation (400× g, 5 min) to replace the supernatant and subsequently fixed with 1% paraformaldehyde (Merck, Darmstadt, Germany). Fluorescence intensity was quantified by flow cytometry, and IC50 values were obtained by nonlinear regression analysis. All measurements were performed with at least four technical replicates.

human CXCR4, sequence (P61073 whole entry): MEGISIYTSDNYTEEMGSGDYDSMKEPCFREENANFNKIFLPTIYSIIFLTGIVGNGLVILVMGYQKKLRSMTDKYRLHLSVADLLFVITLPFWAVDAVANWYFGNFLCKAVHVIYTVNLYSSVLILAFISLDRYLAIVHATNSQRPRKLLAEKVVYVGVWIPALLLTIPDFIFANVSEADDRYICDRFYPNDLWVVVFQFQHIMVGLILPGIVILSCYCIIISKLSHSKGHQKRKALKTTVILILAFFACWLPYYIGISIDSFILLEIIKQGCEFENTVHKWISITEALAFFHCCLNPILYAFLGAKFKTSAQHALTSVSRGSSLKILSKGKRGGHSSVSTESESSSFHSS

CC(C)NCCCC[C@@H]1NC(=O)[C@H](Cc2ccc(O)cc2)NC(=O)[C@H](Cc2ccccc2)NC(=O)CC[C@H](C(=O)N[C@@H](CCCCNC(C)C)C(=O)N[C@@H](CCCCNC(=O)[C@H](CCC(=O)O)NC(=O)[C@H](CCC(=O)O)NC(=O)[C@H](CCC(=O)O)NC(=O)CN2CCN(CC(=O)O)CCN(CC(=O)O)CC2)C(N)=O)NC(=O)CNC(=O)[C@H](Cc2ccc3ccccc3c2)NC(=O)[C@@H](CCCNC(=N)N)NC1=O [[^natF]AlF-NOTA-SC] (FY[Lys(iPr)][dR][2Nal]G[dE][Lys(iPr)]K([Glu-Glu-Glu-NOTA])-NH2; lactam N-7)
IC50: 14.4 ± 2.65 nM

CC(C)NCCCC[C@H](NC(=O)[C@H]1CCC(=O)N[C@@H](Cc2ccccc2)C(=O)N[C@@H](Cc2ccc(O)cc2)C(=O)N[C@@H](CCCCNC(C)C)C(=O)N[C@H](CCCNC(=N)N)C(=O)N[C@@H](Cc2ccc3ccccc3c2)C(=O)NCC(=O)N1)C(N)=O [LY2510924, cyclo[Phe-Tyr-Lys(iPr)-D-Arg-2-Nal-Gly-D-Glu]-Lys(iPr)-NH2] (FY[Lys(iPr)][dR][2Nal]G[dE][Lys(iPr)]-NH2; lactam N-7)
IC50: 0.36 ± 0.07 nM

From publication PMC13516207 (Pharmaceuticals, 2026)
